The text below walks through data of patent US10512634B2, “Benzimidazole derivates useful as inhibitors of mammalian histone deacetylase activity” (KANCERA AB, priority 2015, dated 2019).

The target of one assay is HDAC6 (Homo sapiens (Human), UniProt Q9UBN7). Briefly: HDAC in vitro enzymatic assay (fluorescence). The class given is biochemical. Particulars: top concentration 2 μM. As for the experimental part: Biological Tests Method for Measurement of Enzymatic Activity of HDACs Materials & Methods
All Examples were tested in HDAC1, 2, 3, 6 and 8 in vitro enzymatic assays. The assay principle is well known (Hauser et al. 2009, Bradner et al. 2010) and all necessary reagents like enzymes, substrates, developer and reference compounds are commercially available (see e.g. BPS Biosciences http://www.bpsbioscience.com/). A series of dilutions of the compounds were prepared with a top concentration of 200 μM (2 μM for HDAC6). The enzymatic reactions were conducted in a mixture containing assay buffer, bovine serum albumin, HDAC substrate, and a test compound. After enzymatic reaction, developer was added and after an additional incubation time, fluorescence intensity was measured at an excitation wavelength of 360 nm and an emission wavelength of 460 nm. A selection of the Examples were tested in a full HDAC panel containing HDAC1, 2, 3, 4, 5, 6, 7, 8, 9, 10 and 11 in vitro enzymatic assays. The tests were performed as above except that a series of dilutions of the compounds were prepared with a top concentration of 10 μM for all HDACs.

The next assay concerns AMO-1 (plasmacytom). The experiment in a line: CellTiter-Blue cell viability assay. The class given is cell-based. Particulars: Homo sapiens, AMO1, 72 h, read-out: IC50 AMO-1 (cell viability). As for the experimental part:
(§1) Method for Measurement of Cell Viability
(§2) The CellTiter-Blue® Cell Viability Assay (Promega) provides a homogeneous, fluorometric method for estimating the number of viable cells present in multi-well plates. The assay uses the indicator dye resazurin to measure the metabolic capacity of cells. Viable cells retain the ability to reduce resazurin into resorufin, which is highly fluorescent.
(§3) Stock solutions (10 mM in DMSO) of compounds were serially diluted 1:2 in 11 concentrations. 50 nL/well (10 mM compound stock in DMSO) was acoustically dispensed in 384-well assay plates with an acoustic dispenser (EDC Biosystems ATS-100AV). Final starting concentration in the assay was 20 μM (0.2% DMSO) for test compounds. […] After 72 hours, Celltiter Blue reagent (Promega #G8081) was diluted 1:10 with PBS and then added to wells (5 μL/well). The plates were incubated for 2 hours following addition of reagent. […] Results were calculated as % cell viability compared to background (cells treated with 0.2% DMSO).

Another assay has as its system U266 (multiple myelom). Briefly: CellTiter-Blue cell viability assay. It counts as cell-based. The conditions noted are these: Homo sapiens, U-266, 72 h, read-out: IC50 U266 (cell viability). As for the experimental part:
as §1, §2, §3

A further assay relates to PaCa2 (pancreatic). Briefly: CellTiter-Blue cell viability assay. It counts as cell-based. Particulars: PaCa-2, 72 h, read-out: IC50 PaCa2 (cell viability). As for the experimental part:
as §1, §2, §3

The test system of assay [1] is PBMC (peripheral blood mononuclear cells from healthy donors). Briefly: CellTiter-Blue cell viability assay. The conditions noted are these: PBMC, 72 h, read-out: IC50 healthy PBMC (cell viability). It counts as cell-based. As for the experimental part: as §1, §2, §3
Another assay deals with HDAC1 (Homo sapiens (Human), UniProt Q13547). The experiment in a line: HDAC in vitro enzymatic assay (fluorescence). Particulars: read-out: IC50 HDAC1; selectivity profiling; top concentration 200 μM.
In another assay the target is HDAC3 (Homo sapiens (Human), UniProt O15379). The experiment in a line: HDAC in vitro enzymatic assay (fluorescence). The conditions noted are these: read-out: IC50 HDAC3; selectivity profiling; top concentration 200 μM.
The target in the next assay is HDAC2 (Homo sapiens (Human), UniProt Q92769). The experiment in a line: HDAC in vitro enzymatic assay (fluorescence). Particulars: read-out: IC50 HDAC2; selectivity profiling; top concentration 200 μM.
For the next assay, the target named is HDAC8 (Homo sapiens (Human), UniProt Q9BY41). Briefly: HDAC in vitro enzymatic assay (fluorescence). Particulars: read-out: IC50 HDAC8; selectivity profiling; top concentration 200 μM.
[2] abbreviates: selectivity profiling, read-out: IC50 HDAC6.
Setting [3] is: read-out: IC50 values for inhibition of HDAC6.

Structures can show the parent of a compound that is named as a salt. Where two headings read alike, the source gives them in different places.

HDAC3, sequence (O15379 whole entry): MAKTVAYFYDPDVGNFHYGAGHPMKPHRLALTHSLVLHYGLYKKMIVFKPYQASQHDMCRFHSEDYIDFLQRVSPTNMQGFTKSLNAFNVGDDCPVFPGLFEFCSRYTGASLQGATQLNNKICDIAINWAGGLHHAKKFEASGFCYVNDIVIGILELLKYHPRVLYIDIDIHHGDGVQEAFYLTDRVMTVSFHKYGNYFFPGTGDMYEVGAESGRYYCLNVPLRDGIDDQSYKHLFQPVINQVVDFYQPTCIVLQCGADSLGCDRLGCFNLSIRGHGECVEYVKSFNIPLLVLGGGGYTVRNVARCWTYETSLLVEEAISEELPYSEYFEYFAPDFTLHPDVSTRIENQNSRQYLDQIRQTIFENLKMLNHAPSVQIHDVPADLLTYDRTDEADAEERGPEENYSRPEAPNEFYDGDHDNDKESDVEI
HDAC3, sequence (Q9Y618 395-489 partner): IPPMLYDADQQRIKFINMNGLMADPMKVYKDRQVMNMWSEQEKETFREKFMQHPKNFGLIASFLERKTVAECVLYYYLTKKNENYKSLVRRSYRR
HDAC8, sequence (Q9BY41 whole entry): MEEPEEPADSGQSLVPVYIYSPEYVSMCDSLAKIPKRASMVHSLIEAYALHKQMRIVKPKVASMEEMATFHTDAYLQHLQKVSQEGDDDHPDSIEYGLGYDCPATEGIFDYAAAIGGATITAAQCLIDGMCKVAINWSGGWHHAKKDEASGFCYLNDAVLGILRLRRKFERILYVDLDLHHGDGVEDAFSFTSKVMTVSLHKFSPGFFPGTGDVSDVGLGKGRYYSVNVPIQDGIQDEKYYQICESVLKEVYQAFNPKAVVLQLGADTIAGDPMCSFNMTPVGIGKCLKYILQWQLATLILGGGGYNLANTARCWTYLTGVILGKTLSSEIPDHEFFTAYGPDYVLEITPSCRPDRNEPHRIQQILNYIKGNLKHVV
HDAC1, sequence (Q13547 whole entry): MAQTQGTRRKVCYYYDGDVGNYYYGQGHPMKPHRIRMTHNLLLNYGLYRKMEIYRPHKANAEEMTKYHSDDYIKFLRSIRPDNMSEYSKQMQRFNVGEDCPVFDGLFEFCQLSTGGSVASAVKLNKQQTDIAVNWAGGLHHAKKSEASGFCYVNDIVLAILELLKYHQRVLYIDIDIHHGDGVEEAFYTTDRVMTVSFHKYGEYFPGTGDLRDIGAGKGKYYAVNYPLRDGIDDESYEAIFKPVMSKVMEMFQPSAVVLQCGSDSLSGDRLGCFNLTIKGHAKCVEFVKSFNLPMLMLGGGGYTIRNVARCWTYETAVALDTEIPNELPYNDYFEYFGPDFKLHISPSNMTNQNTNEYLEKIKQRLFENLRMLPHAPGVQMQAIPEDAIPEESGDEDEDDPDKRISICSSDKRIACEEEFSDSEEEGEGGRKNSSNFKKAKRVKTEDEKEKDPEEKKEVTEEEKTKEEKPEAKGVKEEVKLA
HDAC2, sequence (Q92769 whole entry): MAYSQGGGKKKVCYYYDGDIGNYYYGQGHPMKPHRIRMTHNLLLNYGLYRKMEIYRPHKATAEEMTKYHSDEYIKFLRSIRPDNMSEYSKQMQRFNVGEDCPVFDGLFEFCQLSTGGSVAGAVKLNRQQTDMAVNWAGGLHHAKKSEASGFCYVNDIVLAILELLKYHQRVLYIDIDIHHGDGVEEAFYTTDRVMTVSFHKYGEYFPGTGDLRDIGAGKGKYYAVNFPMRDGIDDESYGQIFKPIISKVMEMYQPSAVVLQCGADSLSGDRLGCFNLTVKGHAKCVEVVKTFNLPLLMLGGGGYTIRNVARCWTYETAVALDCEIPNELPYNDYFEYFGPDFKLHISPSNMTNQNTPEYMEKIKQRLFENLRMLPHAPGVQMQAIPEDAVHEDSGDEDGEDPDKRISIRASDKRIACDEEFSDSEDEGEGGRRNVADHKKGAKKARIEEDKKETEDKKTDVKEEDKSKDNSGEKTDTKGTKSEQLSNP

On to `O=C(NO)c1ccc2nc(-c3ccc(-c4ccccc4)cc3)[nH]c2c1` [Example 6, 2-biphenyl-4-yl-N-hydroxy-1H-benzimidazole-6-carboxamide], for which the IC50 on HDAC6 (setting [2]) was 15 nM; on HDAC6 (setting [3]) it was 15 nM; in the assay on AMO-1 (plasmacytom), 1700 nM; in the assay with U266 (multiple myelom), 540 nM; in the assay with PaCa2 (pancreatic), 410 nM; in assay [1], above 20000 nM. Further, the IC50 was determined as 51000 nM on HDAC1, 2100 nM on HDAC3, 160000 nM at HDAC2 and 470 nM at HDAC8.

For the molecule `O=C(NO)c1ccc2nc(-c3cccc(Br)c3)[nH]c2c1` [Example 21, 2-(3-bromophenyl)-N-hydroxy-1H-benzimidazole-6-carboxamide], the concentration for half-maximal inhibition (IC50) at HDAC6 (setting [2]) is 12 nM; at HDAC6 (setting [3]) it was 12 nM; with AMO-1 (plasmacytom) it was 7000 nM; in the assay on U266 (multiple myelom), 7800 nM; in the assay on PaCa2 (pancreatic), 4300 nM; in assay [1], above 20000 nM. For the same molecule, the concentration for half-maximal inhibition (IC50) at HDAC1 turned out to be 1500 nM; at HDAC3, 780 nM; at HDAC2, 9300 nM; at HDAC8, 62 nM.

For `CC(C)c1ccc(-c2nc3ccc(C(=O)NO)cc3[nH]2)cc1` [Example 50, N-hydroxy-2-[4-(1-methylethyl)phenyl]-1H-benzimidazole-6-carboxamide], the IC50 was 14 nM on HDAC6 (setting [2]); 14 nM on HDAC6 (setting [3]); 2000 nM in the assay with AMO-1 (plasmacytom); 580 nM in the assay on U266 (multiple myelom); 290 nM with PaCa2 (pancreatic); above 20000 nM in [1]. Moreover, the IC50 on HDAC1 was determined as 3300 nM; at HDAC3, 3400 nM; on HDAC2, 32000 nM; at HDAC8, 420 nM.

Turning to `CCCCc1ccc(-c2nc3ccc(C(=O)NO)cc3[nH]2)cc1` [Example 162, 2-(4-butylphenyl)-N-hydroxy-1H-benzimidazole-6-carboxamide], the IC50 at HDAC6 (setting [2]) was 31 nM; at HDAC6 (setting [3]), 31 nM; in the assay with AMO-1 (plasmacytom) it was 3700 nM; with U266 (multiple myelom) it was 740 nM; with PaCa2 (pancreatic), 820 nM; in [1], above 20000 nM. Further, the IC50 worked out at 7700 nM on HDAC1, 11000 nM at HDAC3, 94000 nM at HDAC2 and 190 nM at HDAC8.

As for `O=C(NO)c1ccc2nc(-c3ccc(-c4ccc(CN5CCOCC5)cc4)cc3)[nH]c2c1` [Example 190, N-hydroxy-2-[4′-(morpholin-4-ylmethyl)biphenyl-4-yl]-1H-benzimidazole-6-carboxamide trifluoroacetate], the IC50 at HDAC6 (setting [2]) was 21 nM; on HDAC6 (setting [3]) it was 21 nM; in the assay on AMO-1 (plasmacytom) it was 8100 nM; in the assay with U266 (multiple myelom), 3900 nM; in the assay with PaCa2 (pancreatic), 2300 nM; in [1], above 20000 nM. In addition, the IC50 on HDAC1 worked out at 4000 nM; at HDAC3, 910 nM; on HDAC2, 13000 nM; at HDAC8, 80 nM.

For the molecule `CC(C)c1ccc(-c2nc3cc(C(=O)NO)ccc3n2C)cc1` [Example 223, N-hydroxy-1-methyl-2-[4-(1-methylethyl)phenyl]-1H-benzimidazole-5-carboxamide], the IC50 at HDAC6 (setting [2]) was 28 nM; on HDAC6 (setting [3]) it was 28 nM; with AMO-1 (plasmacytom), 18000 nM; with U266 (multiple myelom) it was 8200 nM; with PaCa2 (pancreatic), 5400 nM; in [1], above 20000 nM. The IC50 on HDAC1 worked out at 1600 nM; on HDAC3, 4500 nM; on HDAC2, 60000 nM; at HDAC8 it was 84 nM.

As for `Cn1c(-c2ccc(-c3ccccc3)cc2)nc2cc(C(=O)NO)ccc21` [Example 225, 2-biphenyl-4-yl-N-hydroxy-1-methyl-1H-benzimidazole-5-carboxamide], the IC50 is 3.6 nM on HDAC6 (setting [2]); 3.6 nM at HDAC6 (setting [3]); above 20000 nM in the assay with AMO-1 (plasmacytom); 340 nM in the assay on U266 (multiple myelom); 1000 nM in the assay with PaCa2 (pancreatic); above 20000 nM in assay [1]. Besides, the IC50 was 326 nM at HDAC1, above 200000 nM at HDAC3, above 200000 nM on HDAC2 and 74 nM at HDAC8.
